Data on two compounds can be found in patent publication US20260015387A1, “MITOCHONDRIAL ANTIOXIDANT PEPTIDES” (priority 2022, published 2026).

Test [1] relates to cellular reactive oxygen species. The note with it: ROS caused by 1-butyl hydroperoxide; cited from earlier work.
For test [2] the following is noted: after global ischemia; cited from earlier work.
A short description of test [3]: ABTS radical quenching assay. The note with it: FIGS. 4-6. As to the method:
ABTS assays were also performed. ABTS is a radical cation that is blue in color and absorbs light at 734 nm. 7 mM AzBTS was mixed in water with 2.45 mM potassium persulfate and left 16 hrs in the dark at rt to oxidize. […] The ABTS solution was diluted to an absorbance of ˜0.7 at 734 nm. Samples were assayed with ABTS: 990 μL ABTS solution+10 μL sample. Stocks of peptides were made with concentrations in the range of 0.1 mM to 3.2 mM. This assay may be a better choice than DPPH if there is less steric hindrance. FIGS. 4-6 show the results of these experiments.

For a further test, the system named is 16HBE41o-cells. The format is cell-based. The note with it: for Protection against HOCl-mediated cell death: cells treated with 200 μM HOCl, MTT assay. The method, then: 16HBE41o-cells were treated with 200 μM of HOCl for 60 min in PBS with or without increasing concentrations of peptides. Cells were washed and then placed back in media and cell viability was assess at 24 hours using the MTT assay. % Protection was determined by normalizing data to cell viability with and without oxidant.
An HOCl protection assay using 16HBE41o-cells was performed. This assay measured protection against cell death using HOCl as the oxidant. RH8=2TH peptide and RH9=His peptide. […] For this assay, 16HBE41o-cells were treated with 200 μM of HOCl for 60 minutes in PBS with or without increasing concentrations of test compounds. Cells were washed and then placed back in media and cell viability was assess at 24 hours using the MTT assay. % Protection was determined by normalizing data to cell viability with and without oxidant. Data curves were generated using Prism 8 software (GraphPad) for 50% effective concentration (EC50) determinations and their respective 95% confidence intervals.

The test system of test [4] is Human HMESO malignant mesothelioma cells. Nature of the test: ROS glow assay (cellular H2O2 levels). The format is cell-based. Particulars: 250 mM peptide, 50 μM menadione, 4 hours; compared to the SS-31 peptide (FIG. 8). The method, then:
An ROS glow assay was also performed. The assay measures the levels of H2O2 after injury to the cell. Human HMESO malignant mesothelioma cells were incubated with […] of WT, 2-TH or His compound with the addition 50 μM menadione and the H2O2 substrate for 4 hours (in duplicate). The reaction was quenched with addition of the H2O2 detection substrate. Luminescence levels were measured in a plate reader after 30 minutes of incubation.

A short description of test [5]: In vitro antioxidant capacity studies. Particulars: in vitro data. An excerpt:
Various in vitro antioxidant capacity studies and some cell-based protection assays have been performed. […] This is especially true for HOCl-mediated injury as illustrated in FIG. 9.

The nature of test [6]: Hydroxyl radical scavenging measured by EPR. The note with it: DMPO trap, compared to the SS-31 peptide (FIG. 7). As to the method:
Hydroxyl radical scavenging activity of peptides measured by electron paramagnetic resonance (EPR). Hydroxyl radical was generated by a reaction of 0.8 mM FeSO4, with 0.8-mM H2O2, pH 7.0 (250 μL). The hydroxyl radicals were trapped with 5,5-dimethyl-1-pyrroline-N-oxide (DMPO) prior to obtaining spectra.

The next test relates to cardiolipin. Nature of the test: Cardiolipin binding assay (cytochrome c reduction by ascorbate). The note with it: compared to SS31 (FIG. 18). An excerpt: Cardiolipin binds to cytochrome c, preventing it from being reduced by ascorbate. When the peptide binds cardiolipin, cytochrome c is free to be reduced by ascorbate.
Test [7] is described as follows: DPPH antioxidant activity (radical quenching). The note with it: compared to the SS-31 peptide (FIG. 3). The method, then: Experiments were performed to determine DPPH antioxidant activity. Radical concentration of DPPH was determined after reacting with varying concentrations of peptide. DPPH is an organic radical with a peak ABS at 525 nm.

pEC50: −log10 of the molar value. Read-outs that look alike come from different tables or passages of the source. Square brackets hold non-standard residues; d marks the D form. Dmt = Cc1cc(O)cc(C)c1C[C@H](N)C(=O)O

As for H-[dR][Dmt]KF-NH2 [SS-31], in [1], the “Scavenging of cellular reactive oxygen species” value was “scavenged cellular reactive oxygen species”. Moreover, in test [2], the “Prevention of reperfusion-associated myocardial stunning” value is reported as “prevented reperfusion-associated myocardial stunning”. Besides, the “Quenching of the ABTS radical” value in [3] is “quenches the ABTS radical better”. Further, the “Protection against HOCl-mediated cell death” value in the test with 16HBE41o-cells was “did not protect against HOCl-mediated injury at all”; in the test with 16HBE41o-cells (listed as WT peptide), “did not show any protection”.
By pEC50 is commonly meant the EC50 on a negative log10 scale, so that one unit is a factor of ten. Take `N=C(N)NCCC[C@@H](N)C(=O)N[C@@H](Cc1c[nH]c(=S)[nH]1)C(=O)N[C@@H](CCCCN)C(=O)N[C@@H](Cc1ccccc1)C(N)=O` [RH8]: in [4], the “Cellular levels of H2O2” value is reported as “significantly lower compared to the SS-31 peptide”. In addition, in [5], the “Antioxidant activity (overall comparison)” value is “significantly better antioxidant than the SS-31 peptide”. The “Scavenging of the hydroxyl radical” value in test [6] is recorded as “better at scavenging”. Also, the “Binding to cardiolipin (CL)” value with cardiolipin is listed as “binds to CL equally well as SS31”. Also, the pEC50 with 16HBE41o-cells (cells treated with 200 μM HOCl for 60 min in PBS, viability at 24 hours, MTT, read-out: EC50 of protection against HOCl-mediated cell death) was 4.30. Also, in the test with 16HBE41o-cells, the “Protection against HOCl-mediated cell death” value is reported as “protects strongly”. In test [7], the “Scavenging of the DPPH radical” value is listed as “better at scavenging the DPPH radical”.
